SMILES strings stand for the structures.

The subject of the experiment is Matrix protein 2 (Influenza A virus (A/Udorn/307/1972(H3N2))), P0DOF8 [S31N]. Kind of experiment: Inhibition of Influenza A virus AM2 S31N mutant expressed in xenopus laevis frog oocytes assessed as inhibition of channel current at 100 uM after 2 mins by two-electrode voltage clamp assay relative to control. Format: cell-based. On the technique in general: Two-electrode voltage clamp holds a large cell at a set potential and records current.
For the compound `Brc1ccc(CNC23CCC4CC(CC(C4)C2)C3)s1`, the inhibition turned out to be 72.6%.
Turning to `CSc1ccccc1-c1ccc(CNC23CC4CC(CC(O)(C4)C2)C3)s1`, the inhibition came out at 73.4%.
Regarding `OC12CC3CC(C1)CC(NCc1ccc(-c4ccc(F)cc4F)s1)(C3)C2`, the inhibition was 74.5%.
In the case of `OC12CC3CC(C1)CC(NCc1csc(Br)c1)(C3)C2` it was 48.3%; in that of `OC12CC3CC(C1)CC(NCc1nc(Br)cs1)(C3)C2`, 36%.
Regarding `COc1ncc(-c2ccc(CNC34CC5CC(CC(O)(C5)C3)C4)s2)cn1`, the inhibition was determined as 4.4%.
`OC12CC3CC(C1)CC(NCc1ccc(-c4ccccc4Cl)s1)(C3)C2`: the inhibition is 78.7%.
`OC12CC3CC(C1)CC(NCc1ccc(I)s1)(C3)C2`: the inhibition was 75.6%.
As to `COc1ccc(-c2ccc(CNC34CC5CC(CC(O)(C5)C3)C4)s2)cn1`, the inhibition was 68.3%.
In the case of `OC12CC3CC(C1)CC(NCc1cc(Br)cs1)(C3)C2`, the inhibition was 56.6%.
On to `c1csc(-c2ccc(CNC34CC5CC(CC(C5)C3)C4)s2)c1`, for which the inhibition was determined as 86.1%.
For `Brc1ccc(CNC23CC4CC(CC(C4)C2)C3)[se]1`, the inhibition was 70.6%.
Take `OC12CC3CC(C1)CC(NCc1ccc(-c4ccccc4)s1)(C3)C2`: the inhibition is 84.6%.
Turning to `OC12CC3CC(C1)CC(NCc1cnc(Br)s1)(C3)C2`, the inhibition worked out at 33.5%.
In the case of `Ic1ccc(CNC23CC4CC(CC(C4)C2)C3)s1`, the inhibition came to 78.5%.
On to `COC(=O)c1ccc(-c2ccc(CNC34CC5CC(CC(O)(C5)C3)C4)s2)cc1`, for which the inhibition turned out to be 64.3%.
Regarding `OC12CC3CC(C1)CC(NCc1ccc(Br)s1)(C3)C2`, the inhibition was determined as 64.7%.
In the case of `COc1ccc(-c2ccc(CNC34CC5CC(CC(O)(C5)C3)C4)s2)cc1OC`, the inhibition came to 37.6%.

As a reminder, the inhibition is the percentage by which the read-out fell short of the control.

Source of the values: ChEMBL document CHEMBL4266060, “Structure-Property Relationship Studies of Influenza A Virus AM2-S31N Proton Channel Blockers” (ACS Med Chem Lett, 2018).
